assay: recombinant UMI read abundance after kanamycin selection (control-corrected) (log10(CPM+1)); higher = more efficient recombination; extreme values may be limits of the assay; sequences stand for … in AGTGCAGAGAAAATCGGCCAGTTTTCTCTGCCTGCAGTCCGCATGCCGTGGGACCCCTTGGGTTCTAACCTGTTGCCTAGATTTATGCAGCGGACTGCCTTTCTCCCAAAGTGATAAACCGG…AGGTTGGTTTCACT; site = the 11-nt donor
Experimental: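 Pooled E. coli donor-specificity screen for the IS621 bridge recombinase. Each library member carries a reprogrammed 11-nt donor and a full-length LE bridge RNA expressed in cis from the natural promoter, with a paired donor-binding loop (8-nt LDG + 4-nt RDG) and a target-binding loop fixed to T5. It is co-electroporated with a T5 target plasmid; recombinase is induced with 0.07 mM IPTG and recombinants are selected on kanamycin. UMIs are counted as CPM, averaged over two biological replicates and corrected by the unselected control. Molecule = full bridge RNA written as DNA, built from the T5 scaffold: LDG = donor specificity nt 1-8, RDG = reverse complement of nt 8-11.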
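Note: IS621 bridge recombinase in Escherichia coli cells against a fixed T5 target plasmid.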

Sequence	recombinant UMI read abundance (log10)
TCATACTCATGGACCGGTTTTCCCGGTAATCCGTATTTGCC (site TCATACTCTGG)	2.23
TGGCCGGCATGGACCGGTTTTCCCGGTAATCCGTATTTGGC (site TAGCCGGCTGC)	0
TTATCTGCATGGACCGGTTTTCCCGGTAATCCGTATTTGTG (site TTAGCTGCTCA)	0.00464
AGGACAACATGGACCGGTTTTCCCGGTAATCCGTATTTGAC (site AGGACGACTGT)	0
CGATCGACATGGACCGGTTTTCCCGGTAATCCGTATTTGAT (site CGATCGACTAT)	0.807
CATTGACCATGGACCGGTTTTCCCGGTAATCCGTATTTGAG (site CATTGACCTCT)	0.0215
ATTTCAACATGGACCGGTTTTCCCGGTAATCCGTATTTGAC (site ATTTCAACTGT)	0.461
CCTTCTACATGGACCGGTTTTCCCGGTAATCCGTATTTGAT (site CCTTCTACTAT)	0
ATCCAACCATGGACCGGTTTTCCCGGTAATCCGTATTTGAG (site ATCCAATCTCT)	0.257
AAGCACGCATGGACCGGTTTTCCCGGTAATCCGTATTTGGG (site AAGCACGCTCC)	0.133
TGCTAAGCATGGACCGGTTTTCCCGGTAATCCGTATTTGGT (site TGCTAGGCTAC)	0.0128
CTATGCACATGGACCGGTTTTCCCGGTAATCCGTATTTGTA (site GTATGCACTTA)	0.00869
GGCAATCCATGGACCGGTTTTCCCGGTAATCCGTATTTGCA (site GGCAATCCTTG)	0
AAAAGGCCATGGACCGGTTTTCCCGGTAATCCGTATTTGAC (site AGAAGGCCTGT)	0
CCCGGCCCATGGACCGGTTTTCCCGGTAATCCGTATTTGTT (site CCCGGCCCTAA)	0.1
CACTCCTCATGGACCGGTTTTCCCGGTAATCCGTATTTGTC (site CACTCCTCTGT)	3.06
AATTATGCATGGACCGGTTTTCCCGGTAATCCGTATTTGTA (site AATTATGCTTT)	0.0175
CGTTAGGCATGGACCGGTTTTCCCGGTAATCCGTATTTGCT (site CGTTGGGCTAG)	0
TGGTGCACATGGACCGGTTTTCCCGGTAATCCGTATTTGCC (site TGGTGCACTGG)	1.75
TCATACTCATGGACCGGTTTTCCCGGTAATCCGTATTTGCA (site TCATACGCTTG)	0.00277
GAGTGCGCATGGACCGGTTTTCCCGGTAATCCGTATTTGTC (site GAGTGCGCTGA)	2.71
TAGCTAGCATGGACCGGTTTTCCCGGTAATCCGTATTTGTA (site TAGCTAGCTTA)	1.62
TCAGAAACATGGACCGGTTTTCCCGGTAATCCGTATTTGCG (site TCAGACACTCG)	0.0112
GGACTTCCATGGACCGGTTTTCCCGGTAATCCGTATTTGGT (site GGACTTCCTAC)	1.16

Sequence	recombinant UMI read abundance (log10)
TGCTAGGCATGGACCGGTTTTCCCGGTAATCCGTATTTGGT (site TGCTAAGCTAC)	0.0704
GAAGGTTCATGGACCGGTTTTCCCGGTAATCCGTATTTGTT (site GAAGCTTCTAA)	0.00355
TATATGGCATGGACCGGTTTTCCCGGTAATCCGTATTTGGT (site TATATGGCTAC)	0.39
CCGGAAACATGGACCGGTTTTCCCGGTAATCCGTATTTGTT (site CCGGAAACTAA)	1.15
GACAATCCATGGACCGGTTTTCCCGGTAATCCGTATTTGGT (site GACAAGCCTAC)	0.0115
GAGATGACATGGACCGGTTTTCCCGGTAATCCGTATTTGCA (site GAGATGACTTG)	2.52
TTCCAGCCATGGACCGGTTTTCCCGGTAATCCGTATTTGTG (site TTCCAGCCTCA)	0.0201
AGCTAAGCATGGACCGGTTTTCCCGGTAATCCGTATTTGGG (site AGCTGAGCTCC)	0.0394
TACACCTCATGGACCGGTTTTCCCGGTAATCCGTATTTGAA (site TACACCTCTTT)	0.804
AGGACAACATGGACCGGTTTTCCCGGTAATCCGTATTTGAC (site AGGACAACTGT)	2.26
GGACAGACATGGACCGGTTTTCCCGGTAATCCGTATTTGCC (site GGACAGACTGG)	2.42
CGATCGACATGGACCGGTTTTCCCGGTAATCCGTATTTGAT (site CGATCGACTAG)	0
CGCTCATCATGGACCGGTTTTCCCGGTAATCCGTATTTGCT (site CGGTCATCTAG)	0
CGTAGTCCATGGACCGGTTTTCCCGGTAATCCGTATTTGTT (site CGGAATCCTAA)	0
AGCTCAGCATGGACCGGTTTTCCCGGTAATCCGTATTTGAG (site AGCTCAGCTCA)	0.0132
TCGCTGTCATGGACCGGTTTTCCCGGTAATCCGTATTTGTG (site TCGCTGTCTCA)	0.936
TATTTGGCATGGACCGGTTTTCCCGGTAATCCGTATTTGTG (site TAGTTGGCTCA)	0.00343
AGCTCAGCATGGACCGGTTTTCCCGGTAATCCGTATTTGTG (site AGCTCAGCTCG)	0
ATAGTTCCATGGACCGGTTTTCCCGGTAATCCGTATTTGGA (site ATAGTTCCTTC)	0.223
AAAAGTACATGGACCGGTTTTCCCGGTAATCCGTATTTGAT (site AAAAGTACTAT)	1.62
ATCCAAACATGGACCGGTTTTCCCGGTAATCCGTATTTGAG (site ATCCAAGCTCT)	0.432
TATTTGGCATGGACCGGTTTTCCCGGTAATCCGTATTTGTG (site TATTTGACTCA)	0.0103
TGTTCCCCATGGACCGGTTTTCCCGGTAATCCGTATTTGTA (site TGTTCGCCTTA)	0.0106
CTGGCAACATGGACCGGTTTTCCCGGTAATCCGTATTTGCA (site CTGGAAACTTG)	0

Sequence	recombinant UMI read abundance (log10)
AGGGAGACATGGACCGGTTTTCCCGGTAATCCGTATTTGCA (site AGGGAGACTTG)	2.5
AGAAAGGCATGGACCGGTTTTCCCGGTAATCCGTATTTGCG (site AGAAAGGCTTG)	1.15
AGCTAGGCATGGACCGGTTTTCCCGGTAATCCGTATTTGGT (site CGCTAGGCTAC)	0.00222
ATAATGCCATGGACCGGTTTTCCCGGTAATCCGTATTTGAC (site ATAAGGCCTGT)	0
CATGTGTCATGGACCGGTTTTCCCGGTAATCCGTATTTGAC (site CATGTGTCTGT)	0.602
TGCTCAGCATGGACCGGTTTTCCCGGTAATCCGTATTTGGG (site CGCTCAGCTCC)	0.0151
CAGCTACCATGGACCGGTTTTCCCGGTAATCCGTATTTGCT (site CCGCTACCTAG)	0
AAGCACGCATGGACCGGTTTTCCCGGTAATCCGTATTTGGG (site AAGCAAGCTCC)	0.0142
GCCACGCCATGGACCGGTTTTCCCGGTAATCCGTATTTGTA (site CCCACGCCTTA)	0.0175
ATGTAGGCATGGACCGGTTTTCCCGGTAATCCGTATTTGGC (site ATGTAGTCTGC)	1.06
ATCACCTCATGGACCGGTTTTCCCGGTAATCCGTATTTGCT (site ATCACCTCTAG)	2.75
CCGTTTACATGGACCGGTTTTCCCGGTAATCCGTATTTGAT (site CCGTTTACTAG)	0
CGTACACCATGGACCGGTTTTCCCGGTAATCCGTATTTGAC (site AGTACACCTGT)	0
GACGCCGCATGGACCGGTTTTCCCGGTAATCCGTATTTGGC (site GACGCCGCTGC)	2.91
ACGAATTCATGGACCGGTTTTCCCGGTAATCCGTATTTGCG (site ACGAATTCTCG)	2.06
TGGCCGGCATGGACCGGTTTTCCCGGTAATCCGTATTTGGC (site TTGCCGGCTGC)	0.00854
ACAGACTCATGGACCGGTTTTCCCGGTAATCCGTATTTGCA (site ACAGACTCTTG)	2.44
CTCTACACATGGACCGGTTTTCCCGGTAATCCGTATTTGCG (site CTCTACACTAG)	0.613
AGGACAACATGGACCGGTTTTCCCGGTAATCCGTATTTGAC (site AGGACTACTGT)	0
CGATCGCCATGGACCGGTTTTCCCGGTAATCCGTATTTGTT (site CGATCGACTAA)	0.0236
CGCTCATCATGGACCGGTTTTCCCGGTAATCCGTATTTGCG (site CGCTCATCTCG)	0.716
TCTGAGACATGGACCGGTTTTCCCGGTAATCCGTATTTGCG (site TCAGAGACTCG)	0
CTCTCCTCATGGACCGGTTTTCCCGGTAATCCGTATTTGCC (site CGCTCCTCTGG)	2.57
TGTACACCATGGACCGGTTTTCCCGGTAATCCGTATTTGAC (site TGTTCACCTGT)	0

Reference: the supplement of paper PMC11208160
